Data as given in ChEMBL document CHEMBL3885881, “DrugMatrix”.

Species on record: Rattus norvegicus
Assay: DrugMatrix - Regimen: Daily Repeat
Assay type: toxicity, organism-based, Sprague-Dawley
Parameters: regimen Daily Repeat, gender Male, age 6-8 weeks
Settings: in vivo, po, route oral GAVAGE, […]; for ABSOLUTE BASOPHIL / ABSOLUTE EOSINOPHIL / ABSOLUTE LYMPHOCYTE / ABSOLUTE MONOCYTE / ABSOLUTE SEGMENTED NEUTROPHIL / BASOPHIL / EOSINOPHIL / ERYTHROCYTE COUNT / HEMATOCRIT / HEMOGLOBIN / LEUKOCYTE COUNT / LYMPHOCYTE / MEAN CORPUSCULAR HEMOGLOBIN / MEAN CORPUSCULAR HEMOGLOBIN CONCENTRATION / MONOCYTE / NEUTROPHIL / NUCLEATED RED BLOOD CELLS / PLATELET COUNT: tissue Blood; for ALANINE AMINOTRANSFERASE / ALBUMIN / ALKALINE PHOSPHATASE / ASPARTATE AMINOTRANSFERASE / BLOOD UREA NITROGEN / CARBON DIOXIDE / CHLORIDE / CHOLESTEROL / CREATINE PHOSPHOKINASE / CREATININE / LACTATE DEHYDROGENASE / LIPASE / PHOSPHORUS / POTASSIUM / SODIUM / TOTAL BILIRUBIN / TOTAL PROTEIN / URIC ACID: tissue Plasma
[1] = 0 mg/kg, 72 h, dose level Control, time 3 day
[2] = 0 mg/kg, 120 h, dose level Control, time 5 day
[3] = 10 mg/kg, 72 h, dose level Low, time 3 day

## CN(CCOc1ccc(CC2SC(=O)NC2=O)cc1)c1ccccn1 (stereo not drawn) [ROSIGLITAZONE]
[1]
  ABSOLUTE BASOPHIL: 0 CELLS/uL
  ABSOLUTE EOSINOPHIL: 14 CELLS/uL
  ABSOLUTE LYMPHOCYTE: 11144.67 CELLS/uL
  ABSOLUTE MONOCYTE: 22.5 CELLS/uL
  ABSOLUTE SEGMENTED NEUTROPHIL: 535.5 CELLS/uL
  BASOPHIL: 0%
  EOSINOPHIL: 0.17%
  ERYTHROCYTE COUNT: 5.08 x10E6/uL
  HEMATOCRIT: 32.32%
  HEMOGLOBIN: 12.87 G/DL
  LEUKOCYTE COUNT: 11.72 x10E3/uL
  LYMPHOCYTE: 94.67%
  MEAN CORPUSCULAR HEMOGLOBIN: 25.37 pg
  MEAN CORPUSCULAR HEMOGLOBIN CONCENTRATION: 39.85 G/DL
  MONOCYTE: 0.17%
  NEUTROPHIL: 5%
  NUCLEATED RED BLOOD CELLS: 0 /100WBC
  PLATELET COUNT: 1084 x10E3/uL
  ALANINE AMINOTRANSFERASE: 67.5 u/L
  ALBUMIN: 4.02 G/DL
  ALKALINE PHOSPHATASE: 374.17 u/L
  ASPARTATE AMINOTRANSFERASE: 83.5 u/L
  BLOOD UREA NITROGEN: 14.5 mg/dL
  CARBON DIOXIDE: 30 mmol/L
  CHLORIDE: 100.5 MEQ/L
  CHOLESTEROL: 71.33 mg/dL
  CREATINE PHOSPHOKINASE: 268.33 u/L
  CREATININE: 0.16 mg/dL
  LACTATE DEHYDROGENASE: 81.17 u/L
  LIPASE: 16.67 u/L
  PHOSPHORUS: 10.07 mg/dL
  POTASSIUM: 5.03 MEQ/L
  SODIUM: 142.92 MEQ/L
  TOTAL BILIRUBIN: 0.17 mg/dL
  TOTAL PROTEIN: 5.63 G/DL
  URIC ACID: 0.5 mg/dL
[2]
  ABSOLUTE BASOPHIL: 0 CELLS/uL
  ABSOLUTE EOSINOPHIL: 37.5 CELLS/uL
  ABSOLUTE LYMPHOCYTE: 8049.5 CELLS/uL
  ABSOLUTE MONOCYTE: 82.83 CELLS/uL
  ABSOLUTE SEGMENTED NEUTROPHIL: 646.83 CELLS/uL
  BASOPHIL: 0%
  EOSINOPHIL: 0.5%
  ERYTHROCYTE COUNT: 5.36 x10E6/uL
  HEMATOCRIT: 33.9%
  HEMOGLOBIN: 13.02 G/DL
  LEUKOCYTE COUNT: 8.82 x10E3/uL
  LYMPHOCYTE: 90.17%
  MEAN CORPUSCULAR HEMOGLOBIN: 24.32 pg
  MEAN CORPUSCULAR HEMOGLOBIN CONCENTRATION: 38.42 G/DL
  MONOCYTE: 1.17%
  NEUTROPHIL: 8.17%
  NUCLEATED RED BLOOD CELLS: 0.17 /100WBC
  PLATELET COUNT: 1231.5 x10E3/uL
  ALANINE AMINOTRANSFERASE: 62 u/L
  ALBUMIN: 3.97 G/DL
  ALKALINE PHOSPHATASE: 303.67 u/L
  ASPARTATE AMINOTRANSFERASE: 84.5 u/L
  BLOOD UREA NITROGEN: 14.83 mg/dL
  CARBON DIOXIDE: 31.83 mmol/L
  CHLORIDE: 97 MEQ/L
  CHOLESTEROL: 68.83 mg/dL
  CREATINE PHOSPHOKINASE: 411.33 u/L
  CREATININE: 0.16 mg/dL
  LACTATE DEHYDROGENASE: 88.5 u/L
  LIPASE: 9.5 u/L
  PHOSPHORUS: 9.98 mg/dL
  POTASSIUM: 5.72 MEQ/L
  SODIUM: 141.62 MEQ/L
  TOTAL BILIRUBIN: 0.1 mg/dL
  TOTAL PROTEIN: 5.67 G/DL
  URIC ACID: 0.52 mg/dL
[3]
  ABSOLUTE BASOPHIL: 0 CELLS/uL
  ABSOLUTE EOSINOPHIL: 0 CELLS/uL
  ABSOLUTE LYMPHOCYTE: 11817.33 CELLS/uL
  ABSOLUTE MONOCYTE: 150.67 CELLS/uL
  ABSOLUTE SEGMENTED NEUTROPHIL: 1032 CELLS/uL
  BASOPHIL: 0%
  EOSINOPHIL: 0%
  ERYTHROCYTE COUNT: 4.98 x10E6/uL
  HEMATOCRIT: 32.63%
  HEMOGLOBIN: 12.83 G/DL
  LEUKOCYTE COUNT: 13 x10E3/uL
  LYMPHOCYTE: 91.33%
  MEAN CORPUSCULAR HEMOGLOBIN: 25.77 pg
  MEAN CORPUSCULAR HEMOGLOBIN CONCENTRATION: 39.37 G/DL
  MONOCYTE: 1%
  NEUTROPHIL: 7.67%
  NUCLEATED RED BLOOD CELLS: 0 /100WBC
  PLATELET COUNT: 1118.67 x10E3/uL
  ALANINE AMINOTRANSFERASE: 64.67 u/L
  ALBUMIN: 4 G/DL
  ALKALINE PHOSPHATASE: 377.67 u/L
  ASPARTATE AMINOTRANSFERASE: 83.67 u/L
  BLOOD UREA NITROGEN: 16.33 mg/dL
  CARBON DIOXIDE: 32.67 mmol/L
  CHLORIDE: 99.33 MEQ/L
  CHOLESTEROL: 66.33 mg/dL
  CREATINE PHOSPHOKINASE: 223.67 u/L
  CREATININE: 0.16 mg/dL
  LACTATE DEHYDROGENASE: 89 u/L
  LIPASE: 9.67 u/L
  PHOSPHORUS: 9.83 mg/dL
  POTASSIUM: 5.42 MEQ/L
  SODIUM: 143.77 MEQ/L
  TOTAL BILIRUBIN: 0.13 mg/dL
  TOTAL PROTEIN: 5.7 G/DL
  URIC ACID: 0.53 mg/dL
